From patent publication US20100303786A1, “Stabilisation of Liquid-Formulated Factor VII(A) Polypeptides by Aldehyde-Containing Compounds” (Novo Nordisk Health Care AG, priority 2007, published 2010)
“Also recorded” adds a separate entry of the source.

Columns and labels:
40K-PEG-rFVIIa [1] = target: T1, 40K-PEG-rFVIIa (Homo sapiens, UniProt P08709); assay: Stability of liquid 40K-PEG-rFVIIa formulations: heavy chain fragmentation (Assay 5); assay type: physicochemical; details: 2 months at 5° C.; 28 mM benzaldehyde or 180 mM 5-formyl-4-methylimidazole
T1 construct: has been cleaved at the peptide bond preceding position 153
T1 sequence (P08709 213-466 limits assumed): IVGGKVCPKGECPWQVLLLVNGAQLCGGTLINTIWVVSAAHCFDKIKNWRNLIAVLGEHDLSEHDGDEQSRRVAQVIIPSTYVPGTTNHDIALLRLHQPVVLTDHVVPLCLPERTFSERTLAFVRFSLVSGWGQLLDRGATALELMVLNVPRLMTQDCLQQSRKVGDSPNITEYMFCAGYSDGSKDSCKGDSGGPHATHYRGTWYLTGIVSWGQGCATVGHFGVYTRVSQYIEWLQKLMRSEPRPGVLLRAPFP
T1 sequence (P08709 61-212 limits assumed): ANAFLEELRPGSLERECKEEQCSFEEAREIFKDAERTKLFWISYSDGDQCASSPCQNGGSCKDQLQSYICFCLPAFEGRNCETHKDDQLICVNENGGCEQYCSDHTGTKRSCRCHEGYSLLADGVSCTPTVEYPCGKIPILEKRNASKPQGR
Description: For the purpose of determining the content of heavy chain fragmentation products of 40K-PEG-rFVIIa, a reverse phase HPLC was run on a ACE 3 μm C4, 300 Å, 4.6×100 mm column (Advanced Chromatography Technologies, part. no. ACE-213-1046). Column temperature: 60° C. A-buffer: 0.05% v/v trifluoracetic acid. B-buffer: 0.06% v/v trifluoracetic acid, 80% v/v acetonitrile. Denaturation buffer: 6M Guanidine hydrochloride, 50 mM Tris, 5 mM calcium chloride, pH 7,5. Samples are prepared from 50 μl analysis sample+50 μl denaturation buffer+5 μl DTT+1 μl acetic acid and incubated at 60° C. for 15 min.
The column was eluted with a linear gradient from 35 to 80% B in 30 minutes. Flow rate: 0.7 mL/min. Detection: 214 nm. Load: 25 μg FVIIa. The initial content of heavy chain degradation products is subtracted from the measured content of heavy chain degradation product, i.e. the initial content of heavy chain degradation products is set to 0%. The content of heavy chain degradation products at the time x is then calculated as: […]
wherein HCDP(x) is the measured content of heavy chain degradation products at the time x, HCDP(0) is the measured initial content of heavy chain degradation products, and FVII(x) is the content of the intact Factor VII polypeptide at the time x.
A stability experiment with liquid formulations containing 40K-PEG-rFVIIa was performed. […]

40K-PEG-rFVIIa [2] = target: T1, 40K-PEG-rFVIIa; assay: Stability of liquid 40K-PEG-rFVIIa formulations: clot activity (one-stage coagulation assay, Assay 3); assay type: biochemical; details: 2 months at 5° C.; 28 mM benzaldehyde or 180 mM 5-formyl-4-methylimidazole
Description: The clot assay is used to assess the ability of Factor VIIa polypeptides to make blood clot. For this purpose, the sample to be tested is diluted in 50 mM PIPES-buffer (pH 7.5), 0.1% BSA and 40 μl is incubated with 40 μl of Factor VII deficient plasma and 80 μl of human recombinant tissue factor containing 10 mM Ca2+ and synthetic phospholipids. Coagulation times (clotting times) are measured and compared to a standard curve using a reference standard in a parallel line assay.
A stability experiment with liquid formulations containing 40K-PEG-rFVIIa was performed. The formulations had the following compositions: […]
The PEG moiety is excluded in the specification of 40K-PEG-rFVIIa concentration. pH was 6.5 in all samples. At 0, ½, 1 and 2 months, 70 μl aliquots were taken from the stability sample, diluted to 1 mg/ml 40K-PEG-rFVIIa and assayed for clot activity (Δactivity), FVIIa polypeptide fragmentation (Δfragment), dimer/2-PEG, and high molecular weight protein.

FVIIa = target: T2, FVIIa (Homo sapiens, UniProt P08709); assay: Thermo-fluorescence (thermal shift) measurement of FVIIa denaturation temperature in the presence of aldehydes; assay type: physicochemical; details: 25 mM imidazole, pH 6.5, 20 mM CaCl2, 60 mg/ml sucrose; various aldehyde concentrations; FIG. 2
T2 construct: has been cleaved at the peptide bond preceding position 153
T2 sequence (P08709 213-466 limits assumed): T1 sequence (P08709 213-466 limits assumed)
T2 sequence (P08709 61-212 limits assumed): T1 sequence (P08709 61-212 limits assumed)
Description: The effect of aldehydes on Factor VIIa amidolytic activity is shown in an in vitro hydrolysis assay (20 mM imidazole, pH 6.5, 20 mM CaCl2), the results of which are illustrated in FIG. 1. A clear inhibition of amidolytic activity is observed. However, the apparent inhibition could be due to FVIIa denaturation. In order to address this issue, the denaturation temperature of FVIIa was measured in the presence of aldehydes. The measurement was performed by thermo-fluorescence, essentially as the thermal shift assay described by Lo et al., Analytical Biochemistry 332, 153-159 (2004). The denaturation temperature was determined as the point of maximum slope of the fluorescence intensity curve. The denaturation temperature is shown in FIG. 2 at various concentrations of aldehydes (25 mM imidazole, pH 6.5, 20 mM CaCl2, 60 mg/ml sucrose). […] Therefore, the inhibitory activity of these three compounds may be caused by denaturation.

rFVIIa = target: T3, rFVIIa (Homo sapiens, UniProt P08709); assay: Stability experiment: heavy chain fragmentation of rFVIIa after 4 weeks in benzaldehyde solutions; assay type: physicochemical; details: 4 weeks at 5° C.; 12.5 mg/ml rFVIIa, pH 6.5; 0, 10, 20, 40 and 80 mM benzaldehyde; FIG. 5
T3 construct: has been cleaved at the peptide bond preceding position 153
T3 sequence (P08709 213-466 limits assumed): T1 sequence (P08709 213-466 limits assumed)
T3 sequence (P08709 61-212 limits assumed): T1 sequence (P08709 61-212 limits assumed)
Description: In the below working examples the content of heavy chain fragmentation products of Factor VIIa is determined by RP-HPLC as described in the following:
Reverse phase HPLC was run on a proprietary 4.5×250 mm butyl-bonded silica column with a particle size of 5 μm and pore size 300 Å. Column temperature: 70° C. A-buffer: 0.1% v/v trifluoracetic acid. B-buffer: 0.09% v/v trifluoracetic acid, 80% v/v acetonitrile. The column was eluted with a linear gradient from X to (X+13) % B in 30 minutes. X was adjusted so that FVIIa elutes with a retention time of approximately 26 minutes. Flow rate: 1.0 mL/min. Detection: 214 nm. Load: 25 μg FVIIa.
A stability experiment with liquid formulations containing FVIIa was performed. Conditions in all samples were 10 mM His, pH 6.5, 20 mM CaCl2, 6% sucrose, 0.5 mg/ml methionine, 12.5 mg/ml rFVIIa. 50 μl solutions with 0, 10, 20, 40 and 80 mM benzaldehyde in 500 μl cryotubes were prepared, incubated at 5° C. for 4 weeks and then frozen to −80° C. In addition, a reference sample without benzaldehyde was prepared and immediately frozen to −80° C. For analysis, all samples were thawed, diluted to 1 ml volume in 10 mM histidine, pH 5.5, and analysed for heavy chain fragmentation.

SMILES: Cc1nc[nH]c1C=O [5-formyl-4-methylimidazol, 5-formyl-4-methylimidazole]
- Fragmentation compared to the reference formulation (40K-PEG-rFVIIa [1]): very large reduction in fragmentation
- Loss of activity / FVIIa polypeptide stability compared to the reference formulation (40K-PEG-rFVIIa [2]): very large improvement in FVIIa polypeptide stability

SMILES: O=Cc1ccccc1 [benzaldehyde]
- Effect on Factor VIIa denaturation temperature (melting point) (FVIIa): drops significantly at high aldehyde concentration; also recorded: affect the denaturation temperature at high concentrations
- Fragmentation as a percentage of the total Factor VIIa content (% fragmented) (rFVIIa): decreases as the concentration of benzaldehyde is increased; also recorded: much lower in the presence of benzaldehyde, particularly in concentrations above 10 mM
- Fragmentation compared to the reference formulation (40K-PEG-rFVIIa [1]): small reduction in fragmentation
- Loss of activity / FVIIa polypeptide stability compared to the reference formulation (40K-PEG-rFVIIa [2]): small reduction in fragmentation and loss of activity
